Reference: patent publication US7871978B2, “Bone tropic peptides” (University of Virginia Patent Foundation, priority 2004, dated 2011)
Entries after “also recorded” stand apart in the source; their conditions may differ.

Key:
[1] = test system: bovine aortic endothelial cells (BAEC); experiment: Peptide binding to BAEC in culture (Avidin-FITC); set-up: key: ✓: Check marks indicate positive binding observed with FITC; −: a dash indicates a negative result
Description: (§1) For localization of peptide binding to cells and tissue sections, biotinylated peptides were synthesized. Fluorescein-isothiocyanate (FITC) labeled Avidin was used to localize the peptides on cells in culture and in tissue sections in vitro by epiluminescence microscopy. In addition, the biotinylated peptides were detected at concentrations as low as 1 μM in slot blots.
Bone marrow cells isolated from mouse femur were lifted with ethylenediaminetetraacetic acid (EDTA) and trypsin, resuspended, and allowed to attach on fibronectin-coated chamber slides for Avidin-FITC staining. […] The D1 cell is a multipotential mesenchymal stem-like line that was isolated from bone marrow and shown to have the characteristics of osteoprogenitor cells. This cell line has been well established and used successfully in several in vitro and in vivo studies in our laboratory. Peptide binding to human bone marrow endothelial cells (HBME) and bovine aortic endothelial cells (BAEC) in culture was also tested using the same procedure.

[2] = test system: bone and marrow tissue sections (mouse femur, rib); experiment: Biotinylated peptide binding to bone/marrow tissue sections, Avidin-FITC fluorescence; set-up: key to Localization of peptide binding: Bone/Marrow (tissue sections): ✓: Check marks indicate positive binding observed with FITC; −: a dash indicates a negative result; conditions: for Localization of peptide binding: Bone/Marrow (tissue sections): FITC; for Binding to rib and long bone growth plate sections: biotinylated peptides, 1/50,000 dilution of Avidin-FITC
Description: Methods: Four-week old Swiss Webster mice were euthanized; the femurs were excised and decalcified in 0.25M EDTA in PBS solution for 5 days, and washed in PBS for 24 hours. The femoral shafts were obtained by cutting off the proximal and distal ends of the femur. The femoral shafts were placed in Tissue-Tek O.C.T. Compound (Sukura Finetek, Torrance, Calif.) and frozen at −20° C. overnight. Sections were cut at 10 μm serially with a cryomicrotome, rinsed with 1% BSA in PBS three times. To block non-specific reaction sections were incubated with Avidin/Biotin Blocking Kit (Vector Laboratories, Inc. Burlingame, Calif.) according to the manufacturer's instructions. Following another rinse with PBS, 150 μl 10 mM solution of each biotinylated peptide (L1, L2, L7, R1, R8) was added to the slides and incubated for 1 hour at room temperature. In negative controls, only PBS was added. After rewashes with 1% BSA, 150 μl of 1:50,000 dilution of Avidin-FITC was added to each slide and incubated overnight at 4° C.
The sections were washed with 1% BSA in PBS and mounted with Vectashield (Vector Laboratories Inc., Burlingame, Calif.). Fluorescence was visualized using a Nikon eclipse E600 microscope (Nikon, Melville, N.Y.) equipped with a 535 nm wavelength fluorescein filter. Images were obtained using a Sony DKC-5000 digital camera (Sony Electronics Inc.) and processed with Adobe Photoshop software (Adobe Systems Incorporated, San Jose, Calif.).
as §1
Cryosections of decalcified femurs harvested from 4 week BALB/c mice were incubated with biotinylated peptide and Avidin-FITC. […] The distribution of fluorescence throughout the marrow was uneven. […] In control slides incubated with PBS without peptide, none of the cells could be detected by fluorescence (not shown). […]

[3] = test system: bovine aortic endothelial cells; experiment: Effect of peptides on adherent bovine aortic endothelial cells on fibronectin or collagen; type: cell-based; conditions: 0.1M biotinylated peptide, 1 hour; cells adhered four hours on fibronectin or collagen
Procedure, shortened: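 Bovine aortic endothelial cells on fibronectin- or collagen-coated glass slides (5,000 cells/well) received biotinylated peptides in PBS/1% BSA for 1 h after 4 h, 48 h or ~6 h adherence, at 0.1M down to 0.0001M. Cells were fixed in 2% paraformaldehyde, then stained with ExtrAvidin-FITC overnight at 4 °C; fluorescence microscopy.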

[4] = test system: Unicortical femoral defects; experiment: Peptide-mediated osteogenesis in cortical bone defects (Example 8); type: in vivo, Fisher 344 rats; conditions: for Histological appearance of repair tissue in the defect / Effectiveness at stimulating osteogenesis and cortical bone repair: 100 mM peptide in gelfoam, two weeks postoperatively; for Effectiveness at stimulating osteogenesis and cortical bone repair: versus gelfoam+PBS
Procedure, shortened: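 Peptides (100 mM in a 1.5 × 2 mm gelfoam carrier) were placed in 1.5 mm unicortical femoral defects in Fisher 344 rats, with the contralateral defect given gelfoam+PBS as control, and harvested at two weeks. L7 was also dosed at 1, 5 and 20 mM, and 20 mM L7 was followed over 5, 10, 15 and 20 days.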

bone and bone marrow = experiment: In vivo biopanning with 12-mer peptide phage display library; set-up: species or system BALB/c mice; conditions: for PERCENT FREQUENCY: phage eluted from bone and bone marrow; for PHAGE SEQUENCE FREQUENCY (number of times the sequence was found in a group of plaques): phage eluted from bone and bone marrow after repeated rounds
Procedure, shortened: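 BALB/c mice (8 weeks) received 3.4×10^10 pfu of a 12-mer peptide phage library (pIII fusion, GGGS spacer) by intracardiac injection and were euthanized after 5 min. Bound phage eluted from bone and bone marrow was titered, amplified and re-injected at the same dose. Peptide frequency was compared with liver, kidney, lung, spleen and brain; sequences identified by phage DNA sequencing.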

[5] = BALB/c mouse decalcified femur cryosections, biotinylated peptide and Avidin-FITC
[6] = BALB/c mouse femur cryosections, biotinylated peptide
[7] = Swiss Webster mouse decalcified femur cryosections, 10 mM biotinylated peptide, 1 hour, Avidin-FITC
[8] = Swiss Webster mouse femur cryosections, 10 mM biotinylated peptide
[9] = biotinylated peptide, Avidin-FITC

| Substance | Localization of peptide binding: BAEC [1] | Fluorescence detected in femur sections incubated with peptide [2, 5] | Cell shape preferentially recognized by peptide [2, 6] | Extent of marrow cells detected by fluorescence [2, 6] | Localization of peptide binding: Bone/Marrow (tissue sections) [2] | Fluorescence detected in femur sections incubated with peptide [2, 7] | Cell shape preferentially recognized by peptide [2, 8] | Extent of marrow cells detected by fluorescence [2, 8] | Binding to rib and long bone growth plate sections [2] | Effect on adherent BAEC (Experiment 1) [3] | Histological appearance of repair tissue in the defect [4] | Effectiveness at stimulating osteogenesis and cortical bone repair [4] | PERCENT FREQUENCY (bone and bone marrow) [%] | PHAGE SEQUENCE FREQUENCY (number of times the sequence was found in a group of plaques) (bone and bone marrow) | Binding to bone and marrow in cryosections of mouse femur [2, 9] | Binding to fresh frozen sections of mouse rib [2, 9] | New bone formation versus corresponding controls at every time point ([4]; 20 mM, 5, 10, 15, and 20 days) | Time course of cortical bone repair ([4]; 20 mM, 5, 10, 15, and 20 days) | Amount of bone that regenerated versus controls without peptide ([4]; 1, 5, and 20 mM) | Effect of peptide concentration on cortical bone regeneration ([4]; 1, 5, and 20 mM) |
| --- | --- | --- | --- | --- | --- | --- | --- | --- | --- | --- | --- | --- | --- | --- | --- | --- | --- | --- | --- | --- |
| ASN-TYR-SER-HIS-LEU-ARG-VAL-LYS-LEU-PRO-THR-PRO-GLY-GLY-GLY-SER (NYSHLRVKLPTPGGGS; listed as Homo sapiens) [Peptide R1] | ✓ | Fluorescence was detected | recognized the round cells preferentially | did not detect as many cells | ✓ | Fluorescence was detected | recognized the round cells preferentially | did not detect as many cells | significant binding to rib and long bone growth plate | the cells had lifted completely and most of the cells disappeared from the surface of the slides, leaving a lot of cell debris | considerable amounts of cortical bone in the defects | potentiate bone regeneration in vivo; also recorded: most effective at stimulating osteogenesis and cortical bone repair; also recorded: most effective peptides for osteogenesis and repair of cortical defects | 24.1 | 7/29 |  |  |  |  |  |  |
| SER-GLY-HIS-GLN-LEU-LEU-LEU-ASN-LYS-MET-PRO-ASN-GLY-GLY-GLY-SER (SGHQLLLNKMPNGGGS; listed as Homo sapiens) [Peptide L13] | − |  |  |  | ✓ |  |  |  | significant binding to rib and long bone growth plate | no effect, with results similar to PBS | a considerable amount of gelfoam remaining in the defects, with thinner and more loosely organized cortical bone | least effective for cortical bone repair | 23.3 | 7/30 | binds to areas of bone and marrow in cryosections of mouse femur | binds to fresh frozen sections of mouse rib containing bone and marrow cells |  |  |  |  |
| ASN-SER-MET-ILE-ALA-HIS-ASN-LYS-THR-ARG-MET-HIS-GLY-GLY-GLY-SER (NSMIAHNKTRMHGGGS; listed as Homo sapiens) [Peptide L7] | ✓ | Fluorescence was detected | Cells that appeared morphologically elongated showed the highest fluorescence intensity | most of the cells were detectable but fluorescence intensity was variable | ✓ | Fluorescence was detected | Cells that appeared morphologically elongated showed the highest fluorescence intensity | most of the cells were detectable but fluorescence intensity was variable |  | the cells lifted and formed clusters that stained intensely | considerable amounts of cortical bone in the defects | potentiate bone regeneration in vivo; also recorded: most effective at stimulating osteogenesis and cortical bone repair; also recorded: most effective peptides for osteogenesis and repair of cortical defects | 3.6 | 1/28 |  |  | new bone formation was greater in the defects treated with peptide compared with the corresponding controls | Cortical bone regeneration increased with time | increased with all the concentrations of peptide, even at 1 mM and 5 mM compared with the controls without peptide | Osteogenesis was most pronounced with the highest concentration of peptide |
